Experimental data reported in US11547667B2 (priority 2007, dated 2023).

Tested on: CD4 T cells from OT-II donor mice
Experiment: In vivo CD4 T cell activation, CFSE dilution of transferred OT-II T cells
Set-up: species or system C57BL6J mice
Settings: footpad injection, with CpG adjuvant, three days after immunization
Experimental: Subsequently, immunization experiments were performed by injecting one footpad with free OVA or with nanoparticles composed of either PLA or PLGA that encapsulated an equivalent amount of OVA as a model antigen. All antigenic mixtures also contained CpG (a TLR9 agonist) as an adjuvant. The animals were injected, sacrificed three days after immunization, and OT-II T cell activation was assessed by flow cytometry in single-cell suspensions from different tissues.
By contrast, activated T cells divide and in the process split the fluorescent dye evenly between the two daughter cells resulting in an incremental decrease in fluorescence intensity upon each successive division. Thus, the greater the left shift in CFSE, fluorescence the stronger T cells were activated.

## free OVA: free chicken ovalbumin (OVA), mixed with CpG adjuvant
  local T cell proliferation in distal lymphoid tissues (brachial lymph node, spleen): only undivided cells or cells with very low CFSE content
